Values quoted from earlier work in article PMC9851200, “Multiparameter phenotypic screening for endogenous TFEB and TFE3 translocation identifies novel chemical series modulating lysosome function” (Autophagy, 2022).

Legend:
Parameters in all cases: method as in original PKIS2 published data
[1] = biological target: T1, kinases (KINOMEscan panel) (Homo sapiens, UniProt Q9HBY8); details: Published KINOMEscan; ref original PKIS2 published data; cited from earlier work
T1 sequence (Q9HBY8 1-367): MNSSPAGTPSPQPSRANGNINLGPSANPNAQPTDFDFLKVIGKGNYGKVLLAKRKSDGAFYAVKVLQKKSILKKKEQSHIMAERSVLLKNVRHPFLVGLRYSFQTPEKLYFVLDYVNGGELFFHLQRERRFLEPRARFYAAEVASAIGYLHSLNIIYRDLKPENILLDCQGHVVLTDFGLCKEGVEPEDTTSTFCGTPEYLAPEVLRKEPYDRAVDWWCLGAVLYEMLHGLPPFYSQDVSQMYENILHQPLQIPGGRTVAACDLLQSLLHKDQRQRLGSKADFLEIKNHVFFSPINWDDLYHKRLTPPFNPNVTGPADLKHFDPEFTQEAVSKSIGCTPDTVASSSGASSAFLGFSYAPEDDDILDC

[2] = biological target: T2, kinases (KINOMEscan panel) (Homo sapiens, UniProt Q96PY6); details: kinase NEK1; Published KINOMEscan; ref original PKIS2 published data; cited from earlier work
T2 sequence (Q96PY6 1-1258): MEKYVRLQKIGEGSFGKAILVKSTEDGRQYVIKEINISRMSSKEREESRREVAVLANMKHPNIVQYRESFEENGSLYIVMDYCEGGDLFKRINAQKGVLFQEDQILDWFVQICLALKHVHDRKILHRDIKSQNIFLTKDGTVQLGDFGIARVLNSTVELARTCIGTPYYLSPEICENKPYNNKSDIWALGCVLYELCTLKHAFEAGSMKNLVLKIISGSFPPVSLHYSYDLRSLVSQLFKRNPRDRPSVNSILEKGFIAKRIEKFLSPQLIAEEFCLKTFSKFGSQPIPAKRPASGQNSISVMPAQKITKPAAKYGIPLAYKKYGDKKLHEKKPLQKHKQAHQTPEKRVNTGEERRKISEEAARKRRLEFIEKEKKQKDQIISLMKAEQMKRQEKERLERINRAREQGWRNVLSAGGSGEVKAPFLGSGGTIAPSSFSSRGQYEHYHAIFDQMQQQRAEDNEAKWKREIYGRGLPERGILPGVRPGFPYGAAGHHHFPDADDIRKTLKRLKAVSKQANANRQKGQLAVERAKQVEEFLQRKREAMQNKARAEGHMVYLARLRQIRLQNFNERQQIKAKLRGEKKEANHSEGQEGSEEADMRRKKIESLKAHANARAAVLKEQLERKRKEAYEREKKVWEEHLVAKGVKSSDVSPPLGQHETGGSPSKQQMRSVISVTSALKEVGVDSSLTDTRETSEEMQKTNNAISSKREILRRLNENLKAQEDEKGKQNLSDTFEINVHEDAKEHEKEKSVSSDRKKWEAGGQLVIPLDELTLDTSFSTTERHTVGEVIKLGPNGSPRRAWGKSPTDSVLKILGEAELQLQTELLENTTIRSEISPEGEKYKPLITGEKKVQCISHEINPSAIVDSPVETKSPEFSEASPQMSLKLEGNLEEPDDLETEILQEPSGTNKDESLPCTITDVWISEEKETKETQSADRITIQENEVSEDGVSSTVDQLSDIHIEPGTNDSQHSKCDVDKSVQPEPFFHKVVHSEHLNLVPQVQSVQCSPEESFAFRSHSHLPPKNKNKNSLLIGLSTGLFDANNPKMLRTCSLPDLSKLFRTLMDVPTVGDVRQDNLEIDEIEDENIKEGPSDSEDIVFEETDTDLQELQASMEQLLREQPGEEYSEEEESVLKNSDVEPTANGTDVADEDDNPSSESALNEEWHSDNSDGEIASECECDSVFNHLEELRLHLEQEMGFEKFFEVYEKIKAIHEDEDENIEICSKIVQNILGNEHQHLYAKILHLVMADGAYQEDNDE

[3] = biological target: T3, kinases (KINOMEscan panel) (Homo sapiens, UniProt P57078); details: RIPK4; Published KINOMEscan; ref original PKIS2 published data; cited from earlier work
T3 sequence (P57078 1-832): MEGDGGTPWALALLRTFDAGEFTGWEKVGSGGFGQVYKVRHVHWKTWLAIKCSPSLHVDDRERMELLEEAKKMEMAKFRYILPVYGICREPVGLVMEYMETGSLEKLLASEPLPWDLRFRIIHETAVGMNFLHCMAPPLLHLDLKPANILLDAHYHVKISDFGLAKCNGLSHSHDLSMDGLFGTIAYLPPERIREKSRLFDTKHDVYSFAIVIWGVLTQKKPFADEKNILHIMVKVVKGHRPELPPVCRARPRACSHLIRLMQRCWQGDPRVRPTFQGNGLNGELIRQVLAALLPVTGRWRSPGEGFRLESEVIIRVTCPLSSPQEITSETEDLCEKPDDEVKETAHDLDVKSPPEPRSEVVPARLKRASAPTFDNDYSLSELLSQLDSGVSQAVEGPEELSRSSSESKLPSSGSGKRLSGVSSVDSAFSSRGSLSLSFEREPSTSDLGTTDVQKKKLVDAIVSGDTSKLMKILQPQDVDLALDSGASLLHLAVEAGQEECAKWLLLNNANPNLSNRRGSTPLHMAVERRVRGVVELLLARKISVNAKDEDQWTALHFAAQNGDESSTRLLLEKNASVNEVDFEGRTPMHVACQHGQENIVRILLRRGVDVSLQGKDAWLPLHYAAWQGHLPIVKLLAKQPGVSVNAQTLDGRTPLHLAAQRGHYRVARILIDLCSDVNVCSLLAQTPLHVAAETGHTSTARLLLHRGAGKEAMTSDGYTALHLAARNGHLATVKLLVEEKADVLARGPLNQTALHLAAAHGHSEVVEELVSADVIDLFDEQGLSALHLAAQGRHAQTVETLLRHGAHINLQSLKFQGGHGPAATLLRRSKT

[4] = biological target: T4, kinases (KINOMEscan panel) (Homo sapiens, UniProt O14965); details: Published KINOMEscan; ref original PKIS2 published data; cited from earlier work
T4 sequence (O14965 1-403): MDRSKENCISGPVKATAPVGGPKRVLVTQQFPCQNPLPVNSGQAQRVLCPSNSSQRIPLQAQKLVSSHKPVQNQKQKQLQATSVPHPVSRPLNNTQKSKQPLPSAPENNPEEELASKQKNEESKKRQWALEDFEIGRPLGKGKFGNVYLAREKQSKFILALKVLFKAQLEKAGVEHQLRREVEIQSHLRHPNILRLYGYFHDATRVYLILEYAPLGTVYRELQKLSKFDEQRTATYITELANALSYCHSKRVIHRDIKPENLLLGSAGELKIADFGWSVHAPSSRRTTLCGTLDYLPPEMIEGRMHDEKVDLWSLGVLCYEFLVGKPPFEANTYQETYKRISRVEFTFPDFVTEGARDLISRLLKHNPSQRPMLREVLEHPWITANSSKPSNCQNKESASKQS

Cc1cccc(-c2nc(Nc3ccncc3)c3ccccc3n2)n1 [NK215]
0: KINOMEscan SGK2 [1] | KINOMEscan NEK1 [2] | KINOMEscan RIPK4 [3] | KINOMEscan AURKA [4]
